Assay results published in PubChem BioAssay (NCI).
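Compound exposure: 48 hours, 5 concentrations, 96-well plates. TGI: concentration producing complete growth inhibition.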

How the values were obtained:
Assay in all cases: NCI tumour cell line growth inhibition, 48 h
MOLT-4 leukemia = system: MOLT-4 leukemia
IGROV1 ovarian = system: IGROV1 ovarian
786-0 renal = system: 786-0 renal
SF-539 CNS = system: SF-539 CNS
KM12 colon = system: KM12 colon
SNB-19 CNS = system: SNB-19 CNS
SNB-75 CNS = system: SNB-75 CNS
SW-620 colon = system: SW-620 colon
HCC-2998 colon = system: HCC-2998 colon
COLO 205 colon = system: COLO 205 colon

`OC12c3ccccc3C3CCC4(OCCO4)C3C1c1ccccc12` (stereo not given) was tested, and the TGI (MOLT-4 leukemia) was > 100 µM, the TGI (IGROV1 ovarian) was > 100 µM and the TGI (786-0 renal) was > 100 µM. For the same molecule, the TGI (SF-539 CNS) was > 100 µM, the TGI (KM12 colon) was > 100 µM and the TGI (SNB-19 CNS) was > 100 µM. The TGI (SNB-75 CNS) was > 100 µM, the TGI (SW-620 colon) was > 100 µM and the TGI (HCC-2998 colon) was > 100 µM. For the same molecule, the TGI (COLO 205 colon) was > 100 µM.
In the case of `CC1CN=C(c2cccc(-c3nc(-c4cccc(C5=NCC(C)N5)c4)nc(N(C)C)n3)c2)N1` (stereo not given), the TGI (MOLT-4 leukemia) is reported as 2.7 µM, the TGI (IGROV1 ovarian) is reported as 18.4 µM and the TGI (786-0 renal) is reported as 5.67 µM. The TGI (SF-539 CNS) was 1.66 µM, the TGI (KM12 colon) was 7.72 µM and the TGI (SNB-19 CNS) was 5.27 µM. The TGI (SNB-75 CNS) was 5.13 µM, the TGI (SW-620 colon) was 3.72 µM and the TGI (HCC-2998 colon) was 2.39 µM. It also gave a TGI (COLO 205 colon) of 2.5 µM.
`C=CCN(c1cc(OC)c2[nH]c(C(=O)OCC)c(C)c2c1[N+](=O)[O-])S(C)(=O)=O` was tested, and the TGI (MOLT-4 leukemia) was 28.9 µM, the TGI (IGROV1 ovarian) was > 100 µM and the TGI (786-0 renal) was > 100 µM. The TGI (SF-539 CNS) was > 100 µM, the TGI (KM12 colon) was 66.2 µM and the TGI (SNB-19 CNS) was > 100 µM. The TGI (SNB-75 CNS) was 60 µM, the TGI (SW-620 colon) was > 100 µM and the TGI (HCC-2998 colon) was > 100 µM. The TGI (COLO 205 colon) was 29.1 µM.
In the case of `Cc1cc(O)c(/C=N/C(=S)Nc2ccccc2)c(=O)o1`, the TGI (MOLT-4 leukemia) is reported as > 100 µM, the TGI (IGROV1 ovarian) is reported as > 100 µM and the TGI (786-0 renal) is reported as > 100 µM. For the same molecule, the TGI (SF-539 CNS) was > 100 µM, the TGI (KM12 colon) was > 100 µM and the TGI (SNB-19 CNS) was > 100 µM. The TGI (SNB-75 CNS) was > 100 µM, the TGI (SW-620 colon) was > 100 µM and the TGI (HCC-2998 colon) was > 100 µM. For the same molecule, the TGI (COLO 205 colon) was > 100 µM.
In the case of `COc1ccc2[nH]c3c(C)cc([N+](=O)[O-])c(C)c3c2c1`, the TGI (MOLT-4 leukemia) is reported as > 100 µM, the TGI (IGROV1 ovarian) is reported as > 100 µM and the TGI (786-0 renal) is reported as > 100 µM. For the same molecule, the TGI (SF-539 CNS) was > 100 µM, the TGI (KM12 colon) was 45.4 µM and the TGI (SNB-19 CNS) was > 100 µM. For the same molecule, the TGI (SNB-75 CNS) was 86.1 µM, the TGI (SW-620 colon) was > 100 µM and the TGI (HCC-2998 colon) was 67.7 µM. The TGI (COLO 205 colon) was > 100 µM.
`COC(=O)/C=C(\S/C=C(/c1ccccc1)N1CCn2c(C(=O)c3ccccc3)c(C(=O)OC)c(C(=O)OC)c21)C(=O)OC` was tested, and the TGI (MOLT-4 leukemia) was 5.64 µM, the TGI (IGROV1 ovarian) was > 10 µM and the TGI (786-0 renal) was 3.19 µM. For the same molecule, the TGI (SF-539 CNS) was 3.74 µM, the TGI (KM12 colon) was > 10 µM and the TGI (SNB-19 CNS) was > 10 µM. For the same molecule, the TGI (SNB-75 CNS) was > 10 µM, the TGI (SW-620 colon) was 2.03 µM and the TGI (HCC-2998 colon) was > 10 µM. The TGI (COLO 205 colon) was 3.46 µM.
In the case of `O=C(NNS(=O)(=O)c1ccccc1)c1cccnc1`, the TGI (MOLT-4 leukemia) is reported as > 100 µM, the TGI (IGROV1 ovarian) is reported as > 100 µM and the TGI (786-0 renal) is reported as > 100 µM. For the same molecule, the TGI (SF-539 CNS) was > 100 µM, the TGI (KM12 colon) was > 100 µM and the TGI (SNB-19 CNS) was > 100 µM. For the same molecule, the TGI (SNB-75 CNS) was > 100 µM, the TGI (SW-620 colon) was > 100 µM and the TGI (HCC-2998 colon) was > 100 µM. The TGI (COLO 205 colon) was > 100 µM.
For `CCOC(=O)CN1CC(C2=C(O)CN(CC(=O)OCC)C2=O)=CC1=O`, the TGI (MOLT-4 leukemia) was > 100 µM, the TGI (IGROV1 ovarian) was > 100 µM and the TGI (786-0 renal) was > 100 µM. The TGI (SF-539 CNS) was > 100 µM, the TGI (KM12 colon) was > 100 µM and the TGI (SNB-19 CNS) was > 100 µM. The TGI (SNB-75 CNS) was > 100 µM, the TGI (SW-620 colon) was > 100 µM and the TGI (HCC-2998 colon) was > 100 µM. The TGI (COLO 205 colon) was > 100 µM.
In the case of `CCCC1(CCC)c2cc(/C=N\O)ccc2-c2ccc(-c3ccc(C(C)(C)C)cc3)cc21`, the TGI (MOLT-4 leukemia) is reported as 60.9 µM, the TGI (IGROV1 ovarian) is reported as > 100 µM and the TGI (786-0 renal) is reported as > 100 µM. For the same molecule, the TGI (SF-539 CNS) was > 100 µM, the TGI (KM12 colon) was > 100 µM and the TGI (SNB-19 CNS) was > 100 µM. For the same molecule, the TGI (SNB-75 CNS) was > 100 µM, the TGI (SW-620 colon) was > 100 µM and the TGI (HCC-2998 colon) was > 100 µM. The TGI (COLO 205 colon) was > 100 µM.
With `COc1ccc2c3c1OC1C34CCN(C)C(C2)C4=CC(I)C1(OC)OC` (stereo not given) the TGI (MOLT-4 leukemia) was 21.2 µM, the TGI (IGROV1 ovarian) was 22.2 µM and the TGI (786-0 renal) was 14 µM. It also gave a TGI (SF-539 CNS) of 40.6 µM, a TGI (KM12 colon) of 28.3 µM and a TGI (SNB-19 CNS) of 30.5 µM. The TGI (SNB-75 CNS) was 34.5 µM, the TGI (SW-620 colon) was 20.1 µM and the TGI (HCC-2998 colon) was 21.9 µM. For the same molecule, the TGI (COLO 205 colon) was 28.7 µM.
In the case of `CCn1c(=O)c2nc(SC)sc2n(-c2ccccc2)c1=O`, the TGI (MOLT-4 leukemia) is reported as > 100 µM, the TGI (IGROV1 ovarian) is reported as > 100 µM and the TGI (786-0 renal) is reported as > 100 µM. The TGI (SF-539 CNS) was > 100 µM, the TGI (KM12 colon) was > 100 µM and the TGI (SNB-19 CNS) was > 100 µM. For the same molecule, the TGI (SNB-75 CNS) was > 100 µM, the TGI (SW-620 colon) was > 100 µM and the TGI (HCC-2998 colon) was > 100 µM. For the same molecule, the TGI (COLO 205 colon) was > 100 µM.
With `COP(=O)(OC)/C(=C/c1cn(C(c2ccccc2)(c2ccccc2)c2ccccc2)cn1)NC=O` the TGI (MOLT-4 leukemia) was > 100 µM, the TGI (IGROV1 ovarian) was 44.1 µM and the TGI (786-0 renal) was > 100 µM. For the same molecule, the TGI (SF-539 CNS) was 28.3 µM, the TGI (KM12 colon) was > 100 µM and the TGI (SNB-19 CNS) was > 100 µM. The TGI (SNB-75 CNS) was 23.3 µM, the TGI (SW-620 colon) was 78.1 µM and the TGI (HCC-2998 colon) was 33.3 µM. It also gave a TGI (COLO 205 colon) of 32.9 µM.
In the case of `c1ccc2c(c1)ccn1ccc3c4ccccc4nc-3c21`, the TGI (MOLT-4 leukemia) is reported as 0.415 µM, the TGI (IGROV1 ovarian) is reported as 2.8 µM and the TGI (786-0 renal) is reported as 1.31 µM. The TGI (SF-539 CNS) was 1.48 µM, the TGI (KM12 colon) was 1.92 µM and the TGI (SNB-19 CNS) was 3.14 µM. For the same molecule, the TGI (SNB-75 CNS) was 2.15 µM, the TGI (SW-620 colon) was 2.34 µM and the TGI (HCC-2998 colon) was 1.16 µM. It also gave a TGI (COLO 205 colon) of 1.13 µM.
`COc1ccc2nc3n(c2c1)C(=O)c1ccccc1-3` was tested, and the TGI (MOLT-4 leukemia) was > 100 µM, the TGI (IGROV1 ovarian) was > 100 µM and the TGI (786-0 renal) was > 100 µM. The TGI (SF-539 CNS) was > 100 µM, the TGI (KM12 colon) was > 100 µM and the TGI (SNB-19 CNS) was > 100 µM. The TGI (SNB-75 CNS) was > 100 µM, the TGI (SW-620 colon) was > 100 µM and the TGI (HCC-2998 colon) was > 100 µM. The TGI (COLO 205 colon) was > 100 µM.
In the case of `COc1ccc(C(=O)N/N=C/c2c(C)n(C)n(-c3ccccc3)c2=O)cc1`, the TGI (MOLT-4 leukemia) is reported as > 100 µM, the TGI (IGROV1 ovarian) is reported as > 100 µM and the TGI (786-0 renal) is reported as > 100 µM. For the same molecule, the TGI (SF-539 CNS) was > 100 µM, the TGI (KM12 colon) was > 100 µM and the TGI (SNB-19 CNS) was > 100 µM. The TGI (SNB-75 CNS) was > 100 µM, the TGI (SW-620 colon) was > 100 µM and the TGI (HCC-2998 colon) was > 100 µM. For the same molecule, the TGI (COLO 205 colon) was > 100 µM.
In the case of `CC(CN(C)C)C(=O)c1ccccc1` (stereo not given), the TGI (MOLT-4 leukemia) is reported as 27.6 µM, the TGI (IGROV1 ovarian) is reported as > 100 µM and the TGI (786-0 renal) is reported as > 52.3 µM. The TGI (SF-539 CNS) was > 100 µM, the TGI (KM12 colon) was > 51.5 µM and the TGI (SNB-19 CNS) was > 100 µM. For the same molecule, the TGI (SNB-75 CNS) was > 100 µM, the TGI (SW-620 colon) was 27 µM and the TGI (HCC-2998 colon) was 63 µM. For the same molecule, the TGI (COLO 205 colon) was > 67.5 µM.
In the case of `CCn1c2c(c3ccccc31)C(c1ccccc1)CC1C(=O)N(c3ccccc3)C(=O)C21` (stereo not given), the TGI (MOLT-4 leukemia) is reported as > 100 µM, the TGI (IGROV1 ovarian) is reported as > 100 µM and the TGI (786-0 renal) is reported as > 100 µM. The TGI (SF-539 CNS) was > 100 µM, the TGI (KM12 colon) was > 100 µM and the TGI (SNB-19 CNS) was > 100 µM. For the same molecule, the TGI (SNB-75 CNS) was 59.6 µM, the TGI (SW-620 colon) was > 100 µM and the TGI (HCC-2998 colon) was > 100 µM. For the same molecule, the TGI (COLO 205 colon) was > 100 µM.
